From patent publication US6949577B2, “Pharmaceuticals” (Pfizer, Inc., priority 2000, dated 2005)
Read-outs that look alike come from different tables or passages of the source.

Key:
[1] = molecular target: T1, TAFIa (activated human TAFI) (Homo sapiens, UniProt Q96IY4); experiment: Assay for TAFIa inhibition (Ki determination); assay type: biochemical
T1 sequence (Q96IY4 115-423): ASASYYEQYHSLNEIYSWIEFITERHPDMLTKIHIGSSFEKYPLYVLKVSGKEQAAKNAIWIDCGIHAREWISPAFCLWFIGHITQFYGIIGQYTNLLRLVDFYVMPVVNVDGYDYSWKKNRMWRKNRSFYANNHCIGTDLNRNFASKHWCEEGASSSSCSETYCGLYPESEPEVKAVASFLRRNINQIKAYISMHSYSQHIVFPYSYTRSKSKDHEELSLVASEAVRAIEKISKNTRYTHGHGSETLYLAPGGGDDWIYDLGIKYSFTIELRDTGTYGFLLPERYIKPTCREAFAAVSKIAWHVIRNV
Description: To determine the degree of TAFIa inhibition, compounds were incubated with activated TAFI, and the amount of inhibition expressed in terms of Ki.
Human TAFI (recombinant or purified) was activated by incubating 20 μl of stock solution (360 μg/ml) with 10 μl of human thrombin (10 NIH units/ml), 10 μl of rabbit thrombomodulin (30 μg/ml), 6 μl calcium chloride (50 mM) in 50 μL of 20 mM HEPES (N-[2-hydroxyethyl]piperazine-N-[2-ethanesulfonic acid]) buffer containing 150 mM sodium chloride and 0.01% TWEEN 80 (polyoxyethylene-sorbitan monooleate) pH 7.6 for 20 minutes at 22° C. At the end of the incubation period, thrombin was neutralized by the addition of 10 μL of PPACK (D-Phe-Pro-Arg chloromethyl ketone)(100 nM). TAFIa solution was stored on ice for 5 minutes and finally diluted with 175 μl of HEPES buffer.
A number of different dilutions of the test compound in water were made up. […] To each dilution was then added 20 μl furylacryloyl-alanyl-lysine (FAAL) at a standard concentration. Substrate turn over was measured by reading the absorbance of the reaction mixture at 330 nm every 15 seconds for 30 minutes. Reaction was performed at 24° C. and samples were mixed for 3 seconds prior to each absorbance reading.
A graph of % inhibition against test compound concentration was then plotted; from which was calculated the IC50 value. The Ki value may then be calculated using the Cheng-Prusoff equation.
For the first control, the assay was performed as above, but with 20 μl of water rather than a dilution of the test compound.

[2] = tested on: thrombi in the left circumflex (LCX) coronary artery; experiment: Lysis of coronary artery thrombi by TAFIa inhibitor in conjunction with t-PA; assay type: in vivo, dogs; details: for injured vessels patent at the end of the experiment: 8 dogs/group, all groups received t-PA
Description: The study was designed with 4 groups (8 dogs/group): • (i) aspirin pre-treatment/vehicle infusion; • (ii) no pre-treatment/vehicle infusion; • (iii) no pre-treatment/TAFIa inhibitor; and • (iv) aspirin pre-treatment/TAFIa inhibitor.
Thirty minutes after initiating vehicle or compound infusion a continuous electrical current was delivered to the lumen of the left circumflex (LCX) coronary artery to cause endothelial damage and stimulate the production of a thrombus. Thrombi were allowed to mature for 1 hour prior to attempting to lyse the thrombus and cause vessel reperfusion with t-PA. A total of 4 bolus injections of t-PA (each 0.45 mg/kg i.v.) were given sequentially at 15 minute intervals. Blood flow through the coronary artery was then monitored for a further 2 hours so as to assess vessel patency. Time to vessel occlusion, and reperfusion were measured and the quantity and quality of blood flow analysed post-vessel re-perfusion. In addition, the effect of treatment on surgical bleeding, activated clotting time, cutaneous bleeding and platelet aggregation was also assessed.

[3] = TAFIa, FAAL substrate, Ki calculated from IC50 using Cheng-Prusoff equation, read-out: Ki

Ki [1, 3]	Structure (SMILES)	injured vessels patent at the end of the experiment [2]	also measured
197 nM	NCCN[C@@H](Cc1cn(Cc2cncs2)cn1)C(=O)O [Example 45, (2S)-2-[(2-Aminoethyl)amino]-3-[1-(1,3-thiazol-5-ylmethyl)-1H-imidazol-4-yl]propanoic acid]		
344 nM	NCCN[C@@H](Cc1c[nH]cn1)C(=O)O [Example 11, (2S)-2-[(2-Aminoethyl)amino]-3-(1H-imidazol-4-yl)propanoic acid]		
	CC(=O)Oc1ccccc1C(=O)O [aspirin, reference compound]	1/8	
	CCCn1cnc(C[C@H](CCCN)C(=O)O)c1 [Example 7, (+)-(2S)-5-Amino-2-[(1-n-propyl-1H-imidazol-4-yl)methyl]pentanoic acid]	8/8	Ki [1]: 13 nM; blood flow post-reperfusion (FIG. 1) ([2]; dogs, t-PA 4 x 0.45 mg/kg i.v. boluses, comparison of treatment groups): far superior to tPA alone; proportion of animals in which flow was >75% of baseline at the end of the protocol ([2]; dogs, with t-PA, versus respective controls): significantly increased; period over which improvement in coronary blood flow was maintained ([2]; dogs, with t-PA, whole of the reperfusion period): 165 min
310 nM	CCCn1cnc(CC(CCCCN)C(=O)O)c1 (racemic) [Example 3, (±)-6-Amino-2-[(1-n-propyl-1H-imidazol-4-yl)methyl]hexanoic acid]		
